Source: ChEMBL document CHEMBL5715945 (Cancer Biol Ther, 2010)
Active and inactive are the calls of the source. The rule behind the calls is not given here.

What was measured:
4T1 [1] = assay: Induction of apoptosis in mouse 4T1 adherent cells at 1 uM incubated for 72 hrs by PI staining based flow cytometry analysis; format: functional, cell-based
[2] = molecular target: Casein kinase I isoform gamma-1 (Homo sapiens) (UniProt Q9HCP0); assay: Inhibition of CK1g1 (unknown origin) at 1 uM relative to control; values are per cent of control
Casein kinase I isoform gamma-1 (Homo sapiens), sequence (Q9HCP0 whole entry, looked up, canonical isoform): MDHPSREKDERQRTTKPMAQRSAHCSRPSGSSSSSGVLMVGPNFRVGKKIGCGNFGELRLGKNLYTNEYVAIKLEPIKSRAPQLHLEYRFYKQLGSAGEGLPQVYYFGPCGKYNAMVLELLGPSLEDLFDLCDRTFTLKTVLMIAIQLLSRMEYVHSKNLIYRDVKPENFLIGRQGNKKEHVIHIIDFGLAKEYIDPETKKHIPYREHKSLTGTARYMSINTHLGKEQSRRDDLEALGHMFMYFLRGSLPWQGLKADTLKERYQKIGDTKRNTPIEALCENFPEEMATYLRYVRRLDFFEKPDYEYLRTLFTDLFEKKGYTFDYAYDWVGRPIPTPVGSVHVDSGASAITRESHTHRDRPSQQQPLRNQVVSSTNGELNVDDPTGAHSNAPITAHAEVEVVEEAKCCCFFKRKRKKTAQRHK

[3] = molecular target: Activated CDC42 kinase 1 (Homo sapiens) (UniProt Q07912); assay: Inhibition of ACK1 (unknown origin) at 0.1 uM relative to control; values are per cent of control
4T1 [4] = assay: Inhibition of cell adhesion to fibronectin in mouse 4T1 cells at 0.4 uM incubated for 4 hrs by […]; format: functional, cell-based
[5] = molecular target: Insulin receptor (Homo sapiens) (UniProt P06213); assay: Inhibition of IR (unknown origin) at 1 uM relative to control; values are per cent of control
[6] = molecular target: Focal adhesion kinase 1 (Mus musculus) (UniProt P34152); assay: Inhibition of FAK phosphorylation at Y397 residue in mouse 4T1 adherent cells at 0.1 uM incubated for 24 hrs by immunoblotting analysis; format: cell-based
Focal adhesion kinase 1 (Mus musculus), sequence (P34152 whole entry): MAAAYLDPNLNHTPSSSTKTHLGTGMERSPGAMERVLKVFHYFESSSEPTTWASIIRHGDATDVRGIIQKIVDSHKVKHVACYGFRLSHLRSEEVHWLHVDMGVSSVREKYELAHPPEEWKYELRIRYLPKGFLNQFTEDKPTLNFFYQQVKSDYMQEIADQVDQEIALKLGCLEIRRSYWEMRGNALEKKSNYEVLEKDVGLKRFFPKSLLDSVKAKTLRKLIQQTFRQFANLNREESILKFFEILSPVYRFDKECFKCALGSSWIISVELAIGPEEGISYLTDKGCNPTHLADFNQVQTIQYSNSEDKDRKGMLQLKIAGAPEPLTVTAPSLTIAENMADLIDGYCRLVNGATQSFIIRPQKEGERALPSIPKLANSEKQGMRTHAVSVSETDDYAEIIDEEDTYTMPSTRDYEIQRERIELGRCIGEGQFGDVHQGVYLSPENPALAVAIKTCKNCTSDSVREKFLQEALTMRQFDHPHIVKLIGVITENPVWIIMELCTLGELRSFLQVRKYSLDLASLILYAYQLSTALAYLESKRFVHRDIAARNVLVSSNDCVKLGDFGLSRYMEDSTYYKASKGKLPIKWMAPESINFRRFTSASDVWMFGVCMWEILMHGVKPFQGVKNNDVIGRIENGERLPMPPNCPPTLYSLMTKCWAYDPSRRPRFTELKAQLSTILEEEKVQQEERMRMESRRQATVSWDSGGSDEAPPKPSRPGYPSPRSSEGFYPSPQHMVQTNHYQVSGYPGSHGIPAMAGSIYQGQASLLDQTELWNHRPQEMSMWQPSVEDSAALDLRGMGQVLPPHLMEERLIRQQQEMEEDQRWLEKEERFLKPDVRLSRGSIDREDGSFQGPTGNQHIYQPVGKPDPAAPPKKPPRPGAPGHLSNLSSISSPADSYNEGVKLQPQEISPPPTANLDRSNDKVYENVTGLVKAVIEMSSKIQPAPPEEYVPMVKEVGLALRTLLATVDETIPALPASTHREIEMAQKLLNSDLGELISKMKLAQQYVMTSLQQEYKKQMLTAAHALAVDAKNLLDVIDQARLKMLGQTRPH

4T1 [7] = assay: Inhibition of cell migration in mouse 4T1 cells at 1 uM incubated for 22 hrs by wound healing assay; format: functional, cell-based
[8] = molecular target: Proto-oncogene tyrosine-protein kinase Src (Homo sapiens) (UniProt P12931); assay: Inhibition of c-SRC (unknown origin) at 1 uM relative to control; values are per cent of control
Proto-oncogene tyrosine-protein kinase Src (Homo sapiens), sequence (P12931 2-536 limits assumed): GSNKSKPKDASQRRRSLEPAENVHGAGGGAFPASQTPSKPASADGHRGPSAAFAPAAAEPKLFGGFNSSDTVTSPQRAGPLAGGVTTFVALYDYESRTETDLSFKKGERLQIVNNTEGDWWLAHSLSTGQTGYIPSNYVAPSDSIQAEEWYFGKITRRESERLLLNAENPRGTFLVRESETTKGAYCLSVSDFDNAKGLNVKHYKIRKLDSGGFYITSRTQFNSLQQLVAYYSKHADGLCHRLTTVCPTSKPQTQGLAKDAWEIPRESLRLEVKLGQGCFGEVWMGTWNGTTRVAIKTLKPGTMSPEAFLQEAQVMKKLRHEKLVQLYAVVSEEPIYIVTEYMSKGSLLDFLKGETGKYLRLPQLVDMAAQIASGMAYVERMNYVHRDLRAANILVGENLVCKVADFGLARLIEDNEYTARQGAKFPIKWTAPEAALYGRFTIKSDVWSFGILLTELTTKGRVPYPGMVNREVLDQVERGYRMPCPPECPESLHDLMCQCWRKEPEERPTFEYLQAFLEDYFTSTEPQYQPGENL

4T1 [9] = assay: Effect on p130Cas phosphorylation in mouse 4T1 cultured as 3D spheroids at 0.1 to 1 uM incubated for 24 hrs by immunoblotting analysis; format: functional, cell-based; conditions: dose 0.1-1 µM
ID8 [10] = assay: Antitumor activity against mouse ID8 cells implanted in C57BL6 mouse assessed as inhibition of FAK phosphorylation at Y397 residue at 0.5 mg/ml administered as solution in 5% sucrose measured after 30 days by immunoblotting analysis; format: functional, cell-based; conditions: time 30.0 day
4T1 [11] = assay: Induction of apoptosis in mouse 4T1 adherent cells upto 0.1 uM incubated for 24 hrs by annexin V staining based flow cytometry analysis; format: functional, cell-based
[12] = molecular target: ALK tyrosine kinase receptor (Homo sapiens) (UniProt Q9UM73); assay: Inhibition of ALK (unknown origin) at 1 uM relative to control; values are per cent of control
4T1 [13] = assay: Induction of cell cycle arrest in mouse 4T1 adherent cells assessed as accumulation at S phase at 1 uM measured after 72 hrs by PI staining based flow cytometry analysis (reference value: 12.5%); format: functional
[14] = molecular target: Casein kinase I isoform gamma-1 (Homo sapiens) (UniProt Q9HCP0); assay: Inhibition of CK1g1 (unknown origin) at 0.1 uM relative to control; values are per cent of control
[15] = Toxicity in C57BL6 mouse implanted with mouse ID8 cells assessed as change in body weight at 0.5 mg/ml administered as solution in 5% sucrose measured after 30 days; format: cell-based; conditions: id8, 720 h, time 30 day
[16] = molecular target: cAMP-dependent protein kinase (PKA) (Homo sapiens) (UniProt P22694+P17612+P22612); assay: Inhibition of PKA (unknown origin) at 1 uM relative to control; values are per cent of control
[17] = molecular target: Serine/threonine-protein kinase Chk1 (Homo sapiens) (UniProt O14757); assay: Inhibition of CHK1 (unknown origin) at 1 uM relative to control; values are per cent of control
Serine/threonine-protein kinase Chk1 (Homo sapiens), sequence (O14757 whole entry): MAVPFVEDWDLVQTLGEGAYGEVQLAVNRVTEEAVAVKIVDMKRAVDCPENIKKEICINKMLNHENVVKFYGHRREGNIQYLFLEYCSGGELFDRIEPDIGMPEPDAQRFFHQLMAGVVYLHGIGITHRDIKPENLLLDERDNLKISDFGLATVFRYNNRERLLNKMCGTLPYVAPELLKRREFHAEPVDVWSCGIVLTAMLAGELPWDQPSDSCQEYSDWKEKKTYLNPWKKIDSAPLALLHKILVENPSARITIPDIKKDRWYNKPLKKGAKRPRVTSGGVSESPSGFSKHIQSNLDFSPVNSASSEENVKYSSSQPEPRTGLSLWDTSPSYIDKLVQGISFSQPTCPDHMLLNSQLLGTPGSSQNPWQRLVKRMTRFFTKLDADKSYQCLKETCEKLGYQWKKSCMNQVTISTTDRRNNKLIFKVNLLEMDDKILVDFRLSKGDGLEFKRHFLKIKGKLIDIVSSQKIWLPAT

4T1 [18] = assay: Induction of apoptosis in mouse 4T1 cells assessed as increase in cell membrane blebbing at 0.4 to 1 uM measured after 2 days by phase contrast microscopy analysis; format: functional, cell-based; conditions: dose 0.4-1 µM, time 2.0 day
4T1 [19] = assay: Upregulation of FAK level in mouse 4T1 cells harbouring mCherry red fluorescent protein at 0.1 to 1 uM incubated for 1 hr by immunoblotting analysis; format: functional, cell-based; conditions: dose 0.1-1 µM
ID8 [20] = assay: Upregulation of FAK level in mouse ID8 cells harbouring mCherry red fluorescent protein at 0.1 to 1 uM incubated for 1 hr by immunoblotting analysis; format: functional, cell-based; conditions: dose 0.1-1 µM
[21] = molecular target: Platelet-derived growth factor receptor beta (Homo sapiens) (UniProt P09619); assay: Inhibition of PDGFRb (unknown origin) at 1 uM relative to control; values are per cent of control
4T1 [22] = assay: Induction of apoptosis in mouse 4T1 suspended cells at 0.1 to 1 uM incubated for 48 hrs by PI staining based flow cytometry analysis; format: functional, cell-based; conditions: dose 0.1-1 µM
[23] = molecular target: Focal adhesion kinase 1 (Mus musculus) (UniProt P34152); assay: Inhibition of FAK phosphorylation at Tyr397 residue in mouse 4T1 cells harbouring mCherry red fluorescent protein at 0.1 to 1 uM incubated for 60 mins followed by compound washout measured after 60 mins by immunoblotting analysis; format: cell-based; conditions: dose 0.1-1 µM
4T1 [24] = assay: Effect on p130Cas phosphorylation at Tyr410 residue in mouse 4T1 cultured as 3D spheroids at 0.1 uM incubated for 24 hrs by immunoblotting analysis; format: functional, cell-based
[25] = Toxicity in C57BL6 mouse implanted with mouse ID8 cells assessed as adverse effects at 0.5 mg/ml administered as solution in 5% sucrose measured after 30 days; format: cell-based; conditions: id8, 720 h, time 30 day
4T1 [26] = assay: Induction of cell cycle arrest in mouse 4T1 cells assessed as accumulation at sub-diploid cells at 1 uM measured after 72 hrs by PI staining based flow cytometry analysis; format: functional
[27] = molecular target: High affinity nerve growth factor receptor (Homo sapiens) (UniProt P04629); assay: Inhibition of TrkA (unknown origin) at 1 uM relative to control; values are per cent of control
High affinity nerve growth factor receptor (Homo sapiens), sequence (P04629 33-796 limits assumed): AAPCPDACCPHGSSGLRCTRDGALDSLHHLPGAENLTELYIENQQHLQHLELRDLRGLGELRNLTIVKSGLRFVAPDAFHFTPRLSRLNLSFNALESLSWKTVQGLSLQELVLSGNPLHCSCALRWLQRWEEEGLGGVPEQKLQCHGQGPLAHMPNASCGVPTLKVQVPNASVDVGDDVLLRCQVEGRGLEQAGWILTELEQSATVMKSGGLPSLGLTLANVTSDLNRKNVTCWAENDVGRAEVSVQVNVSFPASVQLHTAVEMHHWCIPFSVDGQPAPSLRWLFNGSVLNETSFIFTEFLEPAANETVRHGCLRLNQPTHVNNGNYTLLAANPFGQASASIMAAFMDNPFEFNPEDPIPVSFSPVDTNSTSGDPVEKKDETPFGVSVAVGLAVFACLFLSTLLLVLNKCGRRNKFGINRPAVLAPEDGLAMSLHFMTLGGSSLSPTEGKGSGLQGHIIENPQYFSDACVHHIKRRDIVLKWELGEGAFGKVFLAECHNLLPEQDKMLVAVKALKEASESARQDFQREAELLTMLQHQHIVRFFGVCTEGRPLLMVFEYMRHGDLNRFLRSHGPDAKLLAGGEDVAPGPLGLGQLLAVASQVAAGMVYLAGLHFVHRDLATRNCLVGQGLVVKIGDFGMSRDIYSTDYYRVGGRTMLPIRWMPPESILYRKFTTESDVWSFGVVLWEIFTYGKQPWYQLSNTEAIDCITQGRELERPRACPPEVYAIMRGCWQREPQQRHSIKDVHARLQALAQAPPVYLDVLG

[28] = molecular target: Mitogen-activated protein kinase 1 (Homo sapiens) (UniProt P28482); assay: Inhibition of MAPK1 (unknown origin) at 1 uM relative to control; values are per cent of control
Mitogen-activated protein kinase 1 (Homo sapiens), sequence (P28482 whole entry): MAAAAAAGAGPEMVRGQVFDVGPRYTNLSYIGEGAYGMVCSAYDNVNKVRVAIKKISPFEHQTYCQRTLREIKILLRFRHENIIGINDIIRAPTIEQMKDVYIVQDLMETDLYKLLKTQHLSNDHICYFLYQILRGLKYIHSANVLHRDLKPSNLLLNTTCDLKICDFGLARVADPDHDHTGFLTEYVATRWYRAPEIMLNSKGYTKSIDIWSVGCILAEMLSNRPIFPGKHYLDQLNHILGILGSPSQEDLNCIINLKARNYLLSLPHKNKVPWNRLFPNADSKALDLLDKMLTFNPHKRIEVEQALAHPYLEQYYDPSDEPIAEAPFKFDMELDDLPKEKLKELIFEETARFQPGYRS

Homo sapiens [29] = species: Homo sapiens; assay: Inhibition of p70S6K (unknown origin) at 1 uM relative to control; values are per cent of control
[30] = molecular target: Tyrosine-protein kinase Fyn (Homo sapiens) (UniProt P06241); assay: Inhibition of Fyn (unknown origin) at 0.1 uM relative to control; values are per cent of control
Tyrosine-protein kinase Fyn (Homo sapiens), sequence (P06241 2-537 limits assumed): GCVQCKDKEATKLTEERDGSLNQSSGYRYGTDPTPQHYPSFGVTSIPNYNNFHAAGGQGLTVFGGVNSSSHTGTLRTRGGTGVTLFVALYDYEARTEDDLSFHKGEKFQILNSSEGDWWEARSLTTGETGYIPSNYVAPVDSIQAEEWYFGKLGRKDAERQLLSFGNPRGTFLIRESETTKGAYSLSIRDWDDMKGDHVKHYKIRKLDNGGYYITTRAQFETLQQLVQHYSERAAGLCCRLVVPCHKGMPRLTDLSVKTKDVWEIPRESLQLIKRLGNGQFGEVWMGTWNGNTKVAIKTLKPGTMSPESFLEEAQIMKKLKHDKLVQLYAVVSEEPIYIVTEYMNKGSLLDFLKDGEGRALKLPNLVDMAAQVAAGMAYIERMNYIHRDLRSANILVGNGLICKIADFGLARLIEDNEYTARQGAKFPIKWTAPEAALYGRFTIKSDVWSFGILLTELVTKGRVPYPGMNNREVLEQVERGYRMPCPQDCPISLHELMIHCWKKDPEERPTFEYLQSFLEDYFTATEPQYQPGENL

Homo sapiens [31] = species: Homo sapiens; assay: Inhibition of p70S6K (unknown origin) at 0.1 uM relative to control; values are per cent of control
[32] = molecular target: Tyrosine-protein kinase ZAP-70 (Homo sapiens) (UniProt P43403); assay: Inhibition of ZAP-70 (unknown origin) at 0.1 uM relative to control; values are per cent of control
Tyrosine-protein kinase ZAP-70 (Homo sapiens), sequence (P43403 whole entry): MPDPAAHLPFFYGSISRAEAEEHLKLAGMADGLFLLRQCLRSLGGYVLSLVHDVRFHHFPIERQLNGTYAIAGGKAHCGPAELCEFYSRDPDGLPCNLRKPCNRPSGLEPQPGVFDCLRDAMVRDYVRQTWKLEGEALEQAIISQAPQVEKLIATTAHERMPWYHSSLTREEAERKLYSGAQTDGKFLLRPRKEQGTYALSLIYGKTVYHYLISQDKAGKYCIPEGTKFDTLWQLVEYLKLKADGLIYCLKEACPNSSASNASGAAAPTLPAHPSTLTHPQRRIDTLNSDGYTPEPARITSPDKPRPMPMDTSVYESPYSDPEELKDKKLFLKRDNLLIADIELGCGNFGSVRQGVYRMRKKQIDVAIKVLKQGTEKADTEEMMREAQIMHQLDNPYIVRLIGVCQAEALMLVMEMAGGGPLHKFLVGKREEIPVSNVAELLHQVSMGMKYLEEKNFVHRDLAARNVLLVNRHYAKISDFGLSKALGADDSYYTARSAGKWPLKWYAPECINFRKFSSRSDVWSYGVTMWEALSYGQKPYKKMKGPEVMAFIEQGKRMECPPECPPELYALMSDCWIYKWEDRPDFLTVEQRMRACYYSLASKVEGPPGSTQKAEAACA

[33] = Metabolic stability in human liver microsomes assessed as half life; format: ADME, Microsome
4T1 [34] = assay: Effect on Src phosphorylation at Y416 residue in mouse 4T1 cultured as 3D spheroids at 0.1 to 1 uM incubated for 24 hrs by immunoblotting analysis; format: functional, cell-based; conditions: dose 0.1-1 µM

residual activity [2]: 107% | residual activity [3]: 56% | residual activity [5]: 40% | inhibition [6]: Active | residual activity [8]: 72% | residual activity [12]: 127% | residual activity [14]: 111% | residual activity [16]: 111% | residual activity [17]: 105% | residual activity [21]: 105% | inhibition [23]: inactive | residual activity [27]: 27% | residual activity [28]: 58% | residual activity (Homo sapiens [29]): 97% | residual activity [30]: 99% | residual activity (Homo sapiens [31]): 95% | residual activity [32]: 70% | half-life [33]: 32 min
SMILES: CNC(=O)c1ccccc1Nc1cc(Nc2ccc(N3CCOCC3)cc2OC)ncc1C(F)(F)F [VS-4718]
Activity (4T1 [1]): Active | inhibition (4T1 [4]): inactive | inhibition (4T1 [7]): Active | Activity (4T1 [9]): inactive | Activity (ID8 [10]): Active | Activity (4T1 [11]): inactive | Activity (4T1 [13]): 10% | Activity [15]: Non-Toxic | Activity (4T1 [18]): Active | Activity (4T1 [19]): Active | Activity (ID8 [20]): Active | Activity (4T1 [22]): inactive | Activity (4T1 [24]): Active | Activity [25]: Non-Toxic | Activity (4T1 [26]): Active | Activity (4T1 [34]): inactive
